Here are results for four molecules from patent publication US11939354B1, “Fusion peptide inhibitors of human coronavirus 229E” (KING FAISAL UNIVERSITY, priority 2023, dated 2024).

Ends that are not written are not given here.

Series [1] is described as follows: Cytotoxicity (CC50) of tested peptides. The note with it: African green monkey, Vero E6 cells.
In another series the test system is HCoV-229E. The note with it: 24 h.
The target of series [2] is HCoV-229E spike (S) protein (human coronavirus 229E, UniProt P15423). The series is described as follows: cell-based or functional assay.

A word on the CC50: it is the concentration giving 50% cytotoxicity. A higher CC50 goes with lower toxicity to the cells. Broadly, the IC50 is the concentration that inhibits the measured activity by half. Read a high IC50 as a need for much substance. As for `CC[C@H](C)[C@H](NC(=O)CNC(=O)[C@H](CO)NC(=O)[C@@H](NC(=O)[C@H](CC(=O)O)NC(=O)CNC(=O)[C@H](CC(C)C)NC(=O)[C@@H](NC(=O)[C@@H](N)Cc1c[nH]cn1)C(C)C)[C@@H](C)CC)C(=O)N[C@@H](CC(N)=O)C(=O)N[C@@H](C)C(=O)N[C@@H](CO)C(=O)N[C@H](C(=O)N[C@H](C(=O)N[C@@H](CCC(N)=O)C(=O)N[C@H](C(=O)N[C@@H](CCC(N)=O)C(=O)N[C@@H](CCCCN)C(=O)N[C@@H](CCC(=O)O)C(=O)N[C@H](C(=O)N[C@@H](CC(=O)O)C(=O)N[C@@H](CCCNC(=N)N)C(=O)N[C@@H](CC(C)C)C(=O)N[C@@H](CC(N)=O)C(=O)N[C@@H](CCC(=O)O)C(=O)N[C@H](C(=O)N[C@@H](C)C(=O)N[C@@H](CCCCN)C(=O)N[C@@H](CC(N)=O)C(=O)N[C@@H](CC(C)C)C(=O)N[C@@H](Cc1c[nH]cn1)C(=O)N[C@@H](CCC(=O)O)C(=O)N[C@@H](CO)C(=O)N[C@@H](CC(C)C)C(=O)N[C@H](C(=O)N[C@@H](Cc1ccc(O)cc1)C(=O)N[C@@H](CC(C)C)C(=O)N[C@@H](CCC(N)=O)C(=O)N[C@@H](CCC(=O)O)C(=O)O)[C@@H](C)CC)C(C)C)[C@@H](C)CC)[C@@H](C)CC)C(C)C)C(C)C` [Peptide 121], the CC50 in series [1] came to 251 µM. Further, in the series on HCoV-229E, the IC50 came to 14.2 µM and the “Selectivity Index” value was 13.06.
The matching figures for “HRLRQIRGIRARVVQIQKEIWRLNEVAKLLNESLIYLQE [Peptide 125]”: 255 µM, 14.5 µM and 17.56.
Consider HVLGDISGINASVVQIQKEIDRLNEVAKNLHESLIYLQE [Peptide 121], for which the “IC50, plaque reduction test against HCoV-229E” value in series [2] is 14.2 µM.
Still for that read-out and setting: to HRLRQIRGIRARVVQIQKEIWRLNEVAKLLNESLIYLQE [Peptide 125] belongs 14.5 µM.
